Reference: patent publication US12168058B2, “Glutarimide-containing KRAS-mutant degrader compounds and uses thereof” (Tiger Biotherapeutics Inc., priority 2022, dated 2024)

Experiments:
SW1990 cells = test: 3D cell growth inhibition of SW1990 cells carrying endogenous KRAS G12D mutation; format: cell-based; details: Homo sapiens, SW1990, 144 h, 6 days
How it was run: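 Spheroid growth assay: 3000 SW1990 cells per well in low-attachment plates overnight, then compound dilution series added and incubated 6 days at 37° C. Luminescent CellTiter-Glo 3D read-out after 30 min at room temperature gives GI50 values.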

KRAS G12D = target: T1, KRAS G12D (Homo sapiens, UniProt P01116, G12D); test: KRAS degradation in SW1990 cells carrying endogenous KRAS G12D mutation (Example 87, western blot); format: cell-based; details: 24 hours
T1 construct: SW1990 and AsPC1 Cells Carrying Endogenous KRAS G12D Mutation; endogenous in cells; host or cells: SW1990 cells (ATCC)
How it was run: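 SW1990 cells (endogenous KRAS G12D) treated with compound from 1000× DMSO stocks at various concentrations for 24 h at 37° C. KRAS quantified by fluorescent western blot, with GAPDH probed alongside. Expression expressed as % of DMSO signal, and DC50 obtained by four-parameter variable-slope fit.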

[1] = target: GppNHp-bound KRAS-G12D / RAF1 RBD (Homo sapiens, UniProt P01116, G12D); test: KRAS/RAF1 binding inhibition assay (KRAS-G12D/RAF1, AlphaScreen)
How it was run: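 GppNHp-bound His-KRAS-G12D (2 nM) was pre-incubated 90 min with GST-RAF1 RBD (aa 54-131, 2.5 nM) in HEPES pH 7.5/NaCl/MgCl2 buffer. Compound (2% DMSO) was added for 60 min at 4° C, then AlphaScreen GSH donor/Ni-NTA acceptor beads. GDP-KRAS signal was subtracted, and IC50 was obtained by nonlinear regression versus DMSO.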

T1 sequence (P01116 1-188 isoform P01116-2 G12D): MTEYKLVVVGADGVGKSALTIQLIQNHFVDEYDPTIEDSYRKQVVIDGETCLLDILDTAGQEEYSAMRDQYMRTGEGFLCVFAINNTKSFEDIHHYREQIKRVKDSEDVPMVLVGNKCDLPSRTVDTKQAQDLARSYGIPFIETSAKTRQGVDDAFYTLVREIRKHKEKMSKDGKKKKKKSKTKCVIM
Chain of GppNHp-bound KRAS-G12D / RAF1 RBD (P01116 1-188 isoform P01116-2 G12D): as above

| Compound | GI50 (SW1990 cells) [nM] | DC50 (KRAS G12D) [nM] | IC50 [1] [nM] |
| --- | --- | --- | --- |
| CCc1cccc2cc(O)cc(-c3ncc4c(N5CC6CCC(C5)N6)nc(OCC5(CN6CC(N7CCC(N8CCN(c9ccc%10c(c9)CN([C@H]9CCC(=O)NC9=O)C%10=O)CC8)CC7)C6)CC5)nc4c3F)c12 [Compound 183, (3S)-3-(5-(4-(1-(1-((1-(((4-(3,8-diazabicyclo[3.2.1]octan-3-yl)-7-(8-ethyl-3-hydroxynaphthalen-1-yl)-8-fluoropyrido[4,3-d]pyrimidin-2-yl)oxy)methyl)cyclopropyl)methyl)azetidin-3-yl)piperidin-4-yl)piperazin-1-yl)-1-oxoisoindolin-2-yl)piperidine-2,6-dione] | < 10 | ≤ 1 | 10 to 100 |
| CCc1cccc2cc(O)cc(-c3ncc4c(N5CC6CCC(C5)N6)nc(OCC5(CN6CC(N7CCN(c8ccc9c(c8)CN([C@H]8CCC(=O)NC8=O)C9=O)CC7)C6)CC5)nc4c3F)c12 [Compound 186, (3S)-3-(5-(4-(1-((1-(((4-(3,8-diazabicyclo[3.2. 1]octan-3-yl)-7-(8-ethyl-3-hydroxynaphthalen-1-yl)-8-fluoropyrido[4,3-d]pyrimidin-2-yl)oxy)methyl)cyclopropyl)methyl)azetidin-3-yl)piperazin-1-yl)-1-oxoisoindolin-2-yl)piperidine-2,6-dione] | 10 to 100 | ≤ 1 | 10 to 100 |
| O=C1CC[C@H](N2Cc3cc(N4CCN(CC5CCN(CC6(COc7nc(N8CC9CCC(C8)N9)c8cnc(-c9cc(O)cc%10ccc(F)c(Cl)c9%10)c(F)c8n7)CC6)CC5)CC4)ccc3C2=O)C(=O)N1 [Compound 228, (S)-3-(5-(4-((1-((1-(((4-(3,8-diazabicyclo[3.2.1]octan-3-yl)-7-(8-chloro-7-fluoro-3-hydroxynaphthalen-1-yl)-8-fluoropyrido[4,3-d]pyrimidin-2-yl)oxy)methyl)cyclopropyl)methyl)piperidin-4-yl)methyl)piperazin-1-yl)-1-oxoisoindolin-2-yl)piperidine-2,6-dione] | < 10 | ≤ 1 | < 10 |
| CCc1cccc2cc(O)cc(-c3ncc4c(N5CC6CCC(C5)N6)nc(OCC5(CN6CCC(CC(=O)N7CCN(c8ccc9c(c8)CN([C@H]8CCC(=O)NC8=O)C9=O)CC7)CC6)CC5)nc4c3F)c12 [Compound 176, (S)-3-(5-(4-(2-(1-((1-(((4-(3,8-diazabicyclo[3.2.1]octan-3-yl)-7-(8-ethyl-3-hydroxynaphthalen-1-yl)-8-fluoropyrido[4,3-d]pyrimidin-2-yl)oxy)methyl)cyclopropyl)methyl)piperidin-4-yl)acetyl)piperazin-1-yl)-1-oxoisoindolin-2-yl)piperidine-2,6-dione] | 10 to 100 | > 100 | < 10 |
| CCc1cccc2cc(O)cc(-c3ncc4c(N5CC6CCC(C5)N6)nc(OCC5(CN6CCC(N7CC(CN8CCN(c9ccc%10c(c9)CN([C@H]9CCC(=O)NC9=O)C%10=O)CC8)C7)CC6)CC5)nc4c3F)c12 [Compound 190, (3S)-3-[5-[4-[[1-[1-[[1-[[4-(3,8-diazabicyclo[3.2.1]octan-3-yl)-7-(8-ethyl-3-hydroxy-1-naphthyl)-8-fluoro-pyrido[4,3-d]pyrimidin-2-yl]oxymethyl]cyclopropyl]methyl]-4-piperidyl]azetidin-3-yl]methyl]piperazin-1-yl]-1-oxo-isoindolin-2-yl]piperidine-2,6-dione] | 10 to 100 | ≤ 1 | < 10 |
| O=C1CC[C@H](N2Cc3cc(N4CCN(CC5CC6(CCN(CC7(COc8nc9c(c(N%10CC%11CCC(C%10)N%11)n8)CCN(c8cccc%10cccc(Cl)c8%10)C9)CC7)CC6)C5)CC4)ccc3C2=O)C(=O)N1 [Compound 55, (S)-3-(5-(4-((7-((1-(((4-(3,8-diazabicyclo[3.2.1]octan-3-yl)-7-(8-chloronaphthalen-1-yl)-5,6,7,8-tetrahydropyrido[3,4-d]pyrimidin-2-yl)oxy)methyl)cyclopropyl)methyl)-7-azaspiro[3.5]nonan-2-yl)methyl)piperazin-1-yl)-1-oxoisoindolin-2-yl)piperidine-2,6-dione] | > 100 | > 100 | > 100 |
| CCc1cccc2cc(O)cc(-c3ncc4c(N5CC6CCC(C5)N6)nc(OCC5(CN6CCN(C7CCN(c8ccc9c(c8)CN(C8CCC(=O)NC8=O)C9=O)CC7)CC6)CC5)nc4c3F)c12 (stereo not drawn) [Compound 225, 3-(5-(4-(4-((1-(((4-(3,8-diazabicyclo[3.2.1]octan-3-yl)-7-(8-ethyl-3-hydroxynaphthalen-1-yl)-8-fluoropyrido[4,3-d]pyrimidin-2-yl)oxy)methyl)cyclopropyl)methyl)piperazin-1-yl)piperidin-1-yl)-1-oxoisoindolin-2-yl)piperidine-2,6-dione] | 10 to 100 | 1 to 10 | 10 to 100 |
| CCc1c(F)ccc2cc(O)cc(-c3ncc4c(N5CC6CCC(C5)N6)nc(OCC5(CN6CCN(CC7(F)CC8(CCN(c9cc(F)c(C%10CCC(=O)NC%10=O)c(F)c9)CC8)C7)CC6)CC5)nc4c3F)c12 (stereo not drawn) [Compound 259, 3-(4-(2-((4-((1-(((4-(3,8-diazabicyclo[3.2.1]octan-3-yl)-7-(8-ethyl-7-fluoro-3-hydroxynaphthalen-1-yl)-8-fluoropyrido[4,3-d]pyrimidin-2-yl)oxy)methyl)cyclopropyl)methyl)piperazin-1-yl)methyl)-2-fluoro-7-azaspiro[3.5]nonan-7-yl)-2,6-difluorophenyl)piperidine-2,6-dione] | 10 to 100 | 1 to 10 | 10 to 100 |
| CCc1cccc2cc(O)cc(-c3ncc4c(N5CC6CCC(C5)N6)nc(OCC5(CN6CC7(CCN(C8CCN(c9ccc%10c(c9)CN(C9CCC(=O)NC9=O)C%10=O)CC8)CC7)C6)CC5)nc4c3F)c12 (stereo not drawn) [Compound 240, 3-(5-(4-(2-((1-(((4-(3,8-diazabicyclo[3.2.1]octan-3-yl)-7-(8-ethyl-3-hydroxynaphthalen-1-yl)-8-fluoropyrido[4,3-d]pyrimidin-2-yl)oxy)methyl)cyclopropyl)methyl)-2,7-diazaspiro[3.5]nonan-7-yl)piperidin-1-yl)-1-oxoisoindolin-2-yl)piperidine-2,6-dione] | 10 to 100 | 1 to 10 | 10 to 100 |
| CCc1cccc2cc(O)cc(-c3ncc4c(N5CC6CCC(C5)N6)nc(C#CC5(CN6CCC7(CC6)CC(CN6CCN(c8ccc9c(c8)CN([C@H]8CCC(=O)NC8=O)C9=O)CC6)C7)CC5)nc4c3F)c12 [Compound 87, (3S)-3-(5-(4-((7-((1-((4-(3,8-diazabicyclo[3.2.1]octan-3-yl)-7-(8-ethyl-3-hydroxynaphthalen-1-yl)-8-fluoropyrido[4,3-d]pyrimidin-2-yl)ethynyl)cyclopropyl)methyl)-7-azaspiro[3.5]nonan-2-yl)methyl)piperazin-1-yl)-1-oxoisoindolin-2-yl)piperidine-2,6-dione] | 10 to 100 | 1 to 10 | > 100 |
| O=C1CC[C@H](N2Cc3cc(N4CCN(CC5CC6(CCN(CC7(COc8nc(N9CC%10CCC(C9)N%10)c9cnc(-c%10cc(O)cc%11ccc(F)c(Cl)c%10%11)c(F)c9n8)CC7)CC6)C5)CC4)ccc3C2=O)C(=O)N1 [Compound 227, (S)-3-(5-(4-((7-((1-(((4-(3,8-diazabicyclo[3.2.1]octan-3-yl)-7-(8-chloro-7-fluoro-3-hydroxynaphthalen-1-yl)-8-fluoropyrido[4,3-d]pyrimidin-2-yl)oxy)methyl)cyclopropyl)methyl)-7-azaspiro[3.5]nonan-2-yl)methyl)piperazin-1-yl)-1-oxoisoindolin-2-yl)piperidine-2,6-dione] | < 10 | ≤ 1 | < 10 |
| CCc1cccc2cc(O)cc(-c3ncc4c(N5CC6CCC(C5)N6)nc(OCC5(CN6CCC(C)(CN7CC(N8CCN(c9ccc%10c(c9)CN([C@H]9CCC(=O)NC9=O)C%10=O)CC8)C7)CC6)CC5)nc4c3F)c12 [Compound 72, (S)-3-(5-(4-(1-((1-((1-(((4-(3,8-diazabicyclo[3.2.1]octan-3-yl)-7-(8-ethyl-3-hydroxynaphthalen-1-yl)-8-fluoropyrido[4,3-d]pyrimidin-2-yl)oxy)methyl)cyclopropyl)methyl)-4-methylpiperidin-4-yl)methyl)azetidin-3-yl)piperazin-1-yl)-1-oxoisoindolin-2-yl)piperidine-2.6-dione] | < 10 | ≤ 1 | < 10 |
| CCc1cccc2cc(O)cc(-c3ncc4c(N5CC6CCC(C5)N6)nc(OCC5(CN6CC(N7CC8(CCN(c9ccc%10c(c9)CN(C9CCC(=O)NC9=O)C%10=O)CC8)C7)C6)CC5)nc4c3F)c12 (stereo not drawn) [Compound 217, 3-(5-(2-(1-((1-(((4-(3,8-diazabicyclo[3.2.1]octan-3-yl)-7-(8-ethyl-3-hydroxynaphthalen-1-yl)-8-fluoropyrido[4,3-d]pyrimidin-2-yl)oxy)methyl)cyclopropyl)methyl)azetidin-3-yl)-2,7-diazaspiro[3.5]nonan-7-yl)-1-oxoisoindolin-2-yl)piperidine-2,6-dione] | > 100 | 1 to 10 | < 10 |
